Assay results taken from patent US7700584B2 (Hangzhou Minsheng Pharmaceuticals Co., Ltd., priority 2004, dated 2010).
Converted amounts (≈) assume the structure as drawn. Where two headings read alike, the source gives them in different places.

Legend:
[1] = tested on: U-937 human histocytic lymphoma; experiment: In vitro inhibition rate to tumor cells (MTT), U-937; assay type: cell-based; details: for inhibition at 50 µg/mL: Homo sapiens, U-937, 50 μg/ml, read-out: inhibition rate, Results (%) U-937; for inhibition rate, Results (%) U-937: 50 μg/ml
[2] = tested on: A-549 human lung adenocarcinoma; experiment: In vitro inhibition rate to tumor cells (MTT), A-549; assay type: cell-based; details: for inhibition at 50 µg/mL: Homo sapiens, A549, 50 μg/ml, read-out: inhibition rate, Results (%) A-549; for inhibition rate, Results (%) A-549: 50 μg/ml
[3] = tested on: Bel-7402 human hepatic carcinoma; experiment: In vitro inhibition rate to tumor cells (MTT), Bel-7402; assay type: cell-based; details: for inhibition at 50 µg/mL: Homo sapiens, Bel-7402, 50 μg/ml, read-out: inhibition rate, Results (%) Bel-7402; for inhibition rate, Results (%) Bel-7402: 50 μg/ml
[4] = tested on: MCF-7 human mammary adenocarcinoma; experiment: In vitro inhibition rate to tumor cells (MTT), MCF-7; assay type: cell-based; details: for inhibition at 50 µg/mL: Homo sapiens, MCF7, 50 μg/ml, read-out: inhibition rate, Results (%) MCF-7; for inhibition rate, Results (%) MCF-7: 50 μg/ml
[5] = tested on: SMMC-7721 human hepatic carcinoma; experiment: In vitro inhibition rate to tumor cells (MTT), SMMC-7721; assay type: cell-based; details: for inhibition at 50 µg/mL: Homo sapiens, SMMC-7721, 50 μg/ml, read-out: inhibition rate, Results (%) SMMC-7721; for inhibition rate, Results (%) SMMC-7721: 50 μg/ml
[6] = tested on: HL-60 human promyelocytic leukemia; experiment: In vitro inhibition rate to tumor cells (MTT), HL-60; assay type: cell-based; details: for inhibition at 50 µg/mL: Homo sapiens, HL-60, 50 μg/ml, read-out: inhibition rate, Results (%) HL-60; for inhibition rate, Results (%) HL-60: 50 μg/ml
[7] = tested on: Hela human cervical carcinoma; experiment: In vitro inhibition rate to tumor cells (MTT), Hela; assay type: cell-based; details: 50 μg/ml; for inhibition at 50 µg/mL: Homo sapiens, HeLa, read-out: inhibition rate, Results (%) Hela
[8] = tested on: LLC mouse Lewis lung carcinoma; experiment: In vitro inhibition rate to tumor cells (MTT), LLC; assay type: cell-based; details: 50 μg/ml; for inhibition at 50 µg/mL: Mus musculus, Lewis lung carcinoma
[9] = target: T1, HIV-1 proteinase (HIV-1 PR) (Human immunodeficiency virus type 1 group M subtype B, UniProt P04585); experiment: Screening for in vitro activity against HIV-1 proteinase; assay type: biochemical; details: for inhibition at 0.08 µg/mL: 0.08 μg/ml; for inhibition at 0.08 µg/mL / inhibition at 0.4 µg/mL / inhibition at 2 µg/mL / inhibition at 10 µg/mL: read-out: Inhibition rate; for inhibition at 0.4 µg/mL: 0.40 μg/ml; for inhibition at 2 µg/mL: 2.0 μg/ml; for inhibition at 10 µg/mL: 10 μg/ml; for IC50: IC50, five 5× serial dilutions from 50 μg/ml; for inhibition at 50 µg/mL: read-out: Inhibition rate, 50 μg/ml
T1 construct: HIV-1 proteinase digests the fluorescent-labeled substrate; purchased
Method: Principle of the test: HIV-1 proteinase digests the fluorescent-labeled substrate in an optimal reaction condition and system. The activity of the enzyme can be reflected by the fluorescent intensity in the product of the enzyme reaction. Adding a sample into the reaction system can be used for screening the inhibitor of the enzyme.
1. HIV-1 PR: commercially available, stored at −85° C.
2. Treatment of the samples: Before use, sample was dissolved in DMSO at a suitable concentration, then serially diluted (5×) with double distilled water, five serial dilutions per sample.
3. Positive control: indinavir, purchased from […].
4. Methods: The diluted sample was added into the reaction buffer containing the fluorescent-labeled substrate. Then the genetic engineered target enzyme was added, and incubated in the optimal reaction condition. The fluorescent value was measured with a FLUO star Galaxy luminoscope.

[10] = target: T2, HIV-1 reverse transcriptase (Human immunodeficiency virus type 1 group M subtype B, UniProt P04585); experiment: Screening for the in vitro activity against the HIV-1 reverse transcriptase; assay type: biochemical; details: IC50, initial concentration 200 μg/ml
T2 construct: purchased
Method: Principle of the test: The template to which the HIV-1 reverse transcriptase interacts was covered onto the enzyme-lined template. In the optimal reaction conditions and system, HIV-1 RT will put the substrate comprising Biotin-dUTP onto the reaction template. The activity of the enzyme was measured as the amount of the integrating Biotin-dUTP in the reaction by using streptavidin-labeled horseradish peroxidase. Adding the sample to the reaction system can identify inhibitor of the enzyme.
1. HIV-1 RT: commercially available.
2. Treatment of the samples: Before use, the sample was dissolved in DMSO at a suitable concentration, then serially diluted (5×) with double distilled water, five serial dilutions per sample.
4. Methods: The diluted sample was added into the reaction buffer containing Biotin-dUTP and the genetic engineered target enzyme, and incubated in the optimal reaction conditions. A streptavidin-labeled horseradish peroxidase was added to visual the system, and OD450 was measured.

[11] = target: T3, HIV-1 integrase (HIV-1 IN) (Human immunodeficiency virus type 1 group M subtype B, UniProt P04585); experiment: Screening for the activity against HIV-1 integrase; assay type: biochemical; details: initial concentration 100 μg/ml; read-out: IC50
T3 construct: a purified HIV-1 integrase was added into each well; purchased
Method: Principle of the test: A synthetic oligonucleotide of 30 nt was used as the donor substrate. A synthetic oligonucleotide of 20 nt was used as the target substrate. A 96-well plate was covered by the donor substrate, and a purified HIV-1 integrase was added into each well. ELISA was performed to measure the product of the target DNA chain transfer. A biotin-labeled alkali phosphatase was used to visual the system. OD value was measured by an Enzyme-linked Detector. Add a sample into the reaction system for screening the inhibitor of the enzyme.
1. HIV-1 IN: commercially available.
2. Treatment of the samples: Before use, the sample was dissolved in water or DMSO at a suitable concentration, then serially diluted (5×), four serial dilutions per sample. The stock solutions of two samples were 100-fold diluted with DMSO, then 5-fold diluted, four serial dilutions per sample. Positive control: S-y, provided by Shanghai Organic Chemistry Institute.
3. The donor substrate and target substrate: synthesized by Shanghai Biological Engineering Company (Shanghai Shenggong).
4. Methods: The diluted sample was added into a 96-well plate covered by the donor substrate, and then added into the reaction buffer containing the genetic engineered target enzyme and biotin-target substrate, incubated in the optimal reaction conditions. A biotin-labeled alkali phosphatase was used to visual the system to determine the absorbance at 450 nm (OD450).

Hepatitis B virus (HBV) = assay type: cell-based; details: 200 μg/ml; for (Value of the positive control - Measured Value) Value of the positive control × 100%: decrease of HBeAg relative to positive control; for OD450 of HBeAg: supernatant four days after infection, positive control 1.917, negative 0.057
HepG2 cells = experiment: Cell status of HepG2 cells treated with sample (HBV screening); assay type: cell-based; details: 200 μg/ml, HepG2, four days after infection
Method: 1.5 Screening for the agents: The HepG2 cells were counted and 1.5×10^4 cells/well were seeded into a 96-well plate. After incubation overnight in an atmosphere of CO2 at 37° C., each of the experimental samples in a given concentration was added to the cells. After incubation at 37 °C for 24 hrs, the HepG2 treated with the samples were infected with vAcGFPHBVc of 100 MOI. A negative control and a positive control were also included. Four days after infection, the growth of the cells were observed, and the HBV e antigen in the supernatant was measured with the HBV e antigen diagnostic kit.

[12] = tested on: Hela human cervical carcinoma; experiment: In vitro anti-tumor IC50 (MTT), Hela; assay type: cell-based; details: Table 4
Method: (§1) (1) Single cell suspension was seeded into 96-well plates (the cells was diluted in the PRMI-1640 minimum medium to 3×10^4 cells/ml, […] diluted cells/well). […] The experiments were performed in quadruplicate.
(§2) (2) The medium was removed. Solutions of the anti-tumor agents (50 compounds) were prepared in a freshly prepared medium at serial concentrations. […] of the solution was added into each well. Incubation was continued for 48 hours.
(§3) (3) 20 ug of 2 mg/ml MTT was added into each well, and incubated for 4 hours.
(§4) (4) The medium was removed from the well. The microplates were swiftly turned down to throw-off the medium. […] of DMSO was added into each well, and vortexed at room temperature for 10 minutes.
(§5) (5) OD value (λ=570 nm) was measured with an Enzyme-Linked Detector.
(§6) (6) The graph of cell vitality was plotted, and IC50 was calculated.

[13] = tested on: U-937 human histocytic lymphoma; experiment: In vitro anti-tumor IC50 (MTT), U-937; assay type: cell-based; details: Table 4
Method: as §1, §2, §3, §4, §5, §6

MDCK (dog kidney) cells = experiment: Toxicity TC50 of the samples in MDCK cells (influenza screening); details: concentration of 50% toxicity

Row | SMILES | inhibition at 50 µg/mL ([1]; Table 1) [%] | inhibition at 50 µg/mL ([1]; Table 2 (repeated screening)) [%] | inhibition at 50 µg/mL ([2]; Table 1) [%] | inhibition at 50 µg/mL ([2]; Table 2 (repeated screening)) [%] | inhibition at 50 µg/mL ([3]; Table 1) [%] | inhibition at 50 µg/mL ([3]; Table 2 (repeated screening)) [%] | inhibition at 50 µg/mL ([4]; Table 1) [%] | inhibition at 50 µg/mL ([4]; Table 2 (repeated screening)) [%] | inhibition at 50 µg/mL ([5]; Table 1) [%] | inhibition at 50 µg/mL ([5]; Table 2 (repeated screening)) [%] | inhibition at 50 µg/mL ([6]; Table 1) [%] | inhibition at 50 µg/mL ([6]; Table 2 (repeated screening)) [%] | inhibition at 50 µg/mL ([7]; Table 1) [%] | inhibition at 50 µg/mL ([7]; Table 2 (repeated screening)) [%] | inhibition at 50 µg/mL ([8]; Table 1) [%] | inhibition at 50 µg/mL ([8]; Table 2 (repeated screening)) [%] | inhibition at 0.08 µg/mL [9] [%] | (Value of the positive control - Measured Value) Value of the positive control × 100% (Hepatitis B virus (HBV)) [%] | OD450 of HBeAg (Hepatitis B virus (HBV)) | Cell status (HepG2 cells) | also measured
1 | CC(C)C1CC23OC1(O)CC(C)C2CCC3C (centres unmarked) [Compound 33, hydrogenated curcumol derivative] | 44.3 | 43.2 | 16.3 | 14.3 | 14.3 | 14.9 | 45.3 | 39.3 | -7.44 | -1.56 | 1.32 | 7.68 | 60.9 | 59.8 | 4.18 | 3.12 | 13.2 | 96.45 | 0.068 | Poor | inhibition at 0.4 µg/mL [9]: 11.4%; inhibition at 2 µg/mL [9]: 10.6%; inhibition at 10 µg/mL [9]: 1.3%; IC50 [9]: > 210 µM; inhibition at 50 µg/mL [9]: 9.14%; IC50 [10]: > 839 µM; inhibition at 100 µg/mL [11]: < 50%
2 | CCCCNC=C1CC2(O)OC3(CC2C(C)C)C(C)CCC13 (centres unmarked) [Compound 13, Curcumol n-butyl amine] | – | – | – | – | – | – | – | – | – | – | – | – | – | – | – | – | – | – | – | – | inhibition rate, Results (%) U-937 ([1]; Table 1): 51.10%; inhibition rate, Results (%) U-937 ([1]; Table 2 (repeated screening)): 45.10%; inhibition rate, Results (%) A-549 ([2]; Table 1): 7.59%; inhibition rate, Results (%) A-549 ([2]; Table 2 (repeated screening)): 3.56%; inhibition rate, Results (%) Bel-7402 ([3]; Table 1): 33.16%; inhibition rate, Results (%) Bel-7402 ([3]; Table 2 (repeated screening)): 30.25%; inhibition rate, Results (%) MCF-7 ([4]; Table 1): 54.67%; inhibition rate, Results (%) MCF-7 ([4]; Table 2 (repeated screening)): 50.36%; inhibition rate, Results (%) SMMC-7721 ([5]; Table 1): 3.71%; inhibition rate, Results (%) SMMC-7721 ([5]; Table 2 (repeated screening)): 0.23%; inhibition rate, Results (%) HL-60 ([6]; Table 1): 0.12%; inhibition rate, Results (%) HL-60 ([6]; Table 2 (repeated screening)): 0.79%; inhibition rate, Results (%) Hela ([7]; Table 1): 66.32%; inhibition rate, Results (%) Hela ([7]; Table 2 (repeated screening)): 65.92%; inhibition rate, Results (%) LLC ([8]; Table 1): 0.24%; inhibition rate, Results (%) LLC ([8]; Table 2 (repeated screening)): 1.32%; IC50 (ug/ml) against tumor cell lines, Hela [12]: 1.6 µg/mL (≈ 5.2 µM); IC50 (ug/ml) against tumor cell lines, U-937 [13]: 0.98 µg/mL (≈ 3.19 µM)
3 | C=C1CC2(OC)OC3(CC2C(C)C)C(C)CCC13 (centres unmarked) [Compound 25, Curcumol methyl ether] | 86.9 | 82.4 | 13.7 | 14.2 | 5.68 | 2.03 | 9.53 | 8.12 | 0.24 | 8.32 | -2.63 | 1.23 | 81.9 | 75.5 | 4.18 | 1.02 | – | −31.8206 | 2.527 | Poor | TC50 (MDCK (dog kidney) cells): >1000 µg/mL
4 | CC(C)C1CC23OC1(O)CC1(CO1)C2CCC3C (centres unmarked) [Compound 47, Curcumol epoxy compound] | 86.5 | 85.4 | -12 | -7.85 | 2.88 | 2.35 | 65.1 | 60.5 | -1.43 | -3.25 | 10.3 | 1.96 | 83.7 | 80.8 | -13.2 | -14 | 6.89 | 80.96 | 0.365 | Poor | inhibition at 0.4 µg/mL [9]: 12.3%; inhibition at 2 µg/mL [9]: 12.9%; inhibition at 10 µg/mL [9]: 1.78%; IC50 [9]: > 198 µM; inhibition at 50 µg/mL [9]: 0.56%; IC50 [10]: > 793 µM; inhibition at 100 µg/mL [11]: < 50%
